Results reported in patent US20260317356A1, “SMALL MOLECULE MODULATORS OF OGG1” (AZKARRA THERAPEUTICS, INC., priority 2023, published 2026).

Each compound was assayed against hOGG1 (Homo sapiens, UniProt O15527) (assay: Biochemical fluorescence assay to measure enzymatic activity of hOGG1 (OGG1/APEX IC50)). Conditions: 1 nM OGG1+2 nM APEX+6 nM dsDNA (8-oxo-dG substrate); pH 7.5; RT 40 min; read-out: OGG1/APEX IC50.
Parameters: Protein His-hOGG1 (12-323) was prepared; His (N); host or cells: E. coli
Outline: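 His-hOGG1 (12-323, E. coli) at 1 nM with 2 nM hAPE1/APEX1, preincubated 20 min RT with compound. Then 6 nM 8-oxo-dG dsDNA substrate added, 40 min at RT in Tris pH 7.5, 100 mM KCl. TAMRA fluorescence (Ex520/Em600) converted to % inhibition vs controls; IC50 from 3-parameter fit of 10-point curve.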

Chain of hOGG1 (O15527 12-323): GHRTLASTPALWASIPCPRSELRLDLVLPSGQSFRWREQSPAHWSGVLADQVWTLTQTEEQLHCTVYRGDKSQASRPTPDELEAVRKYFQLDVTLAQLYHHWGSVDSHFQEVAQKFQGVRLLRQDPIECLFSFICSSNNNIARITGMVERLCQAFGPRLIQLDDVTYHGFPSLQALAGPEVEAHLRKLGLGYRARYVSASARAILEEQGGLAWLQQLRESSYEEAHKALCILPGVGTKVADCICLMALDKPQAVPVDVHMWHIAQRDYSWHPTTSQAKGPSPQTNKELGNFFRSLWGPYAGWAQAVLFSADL

SMILES	IC50 [nM]
COc1ccc(NC(=O)[C@H]2CC[C@@H](N3Cc4c(C)cc(NCCN(C)C)cc4C3=O)CC2)cc1Cl [Example 260, (1s,4s)-N-(3-Chloro-4-methoxyphenyl)-4-(6-(2-(dimethylamino)ethylamino)-4-methyl-1-oxoisoindolin-2-yl)cyclohexanecarboxamide]	< 100
COc1cc(NC(=O)[C@H]2CC[C@@H](N3Cc4c(C)ccc(OCC5CNC5)c4NC3=O)CC2)ccc1C [Example 44, (1s,4s)-4-(8-(Azetidin-3-ylmethoxy)-5-methyl-2-oxo-1,2-dihydroquinazolin-3(4H)-yl)-N-(3-methoxy-4-methylphenyl)cyclohexanecarboxamide]	< 100
COc1cc(NC(=O)[C@]2(C)CC[C@H](N3Cc4c(C)cccc4C3=O)CC2)ccc1C [Example 277, (1s,4s)-N-(3-methoxy-4-methylphenyl)-1-methyl-4-(4-methyl-1-oxoisoindolin-2-yl)cyclohexane-1-carboxamide]	100 to 1000
COc1ccc(NC(=O)[C@H]2CC[C@@H](N3Cc4c(C)ccc(OC)c4NC3=O)CC2)cc1C#N [Example 2, (1s,4s)-N-(3-Cyano-4-methoxyphenyl)-4-(8-methoxy-5-methyl-2-oxo-1,2-dihydroquinazolin-3(4H)-yl)cyclohexanecarboxamide]	100 to 1000
COc1cc(NC(=O)[C@H]2CC[C@@H](N3Cc4c(C)cc(N5CC6(COC6)C5)cc4NC3=O)CC2)ccc1C [Example 30, (1s,4s)-N-(3-Methoxy-4-methylphenyl)-4-(5-methyl-2-oxo-7-(2-oxa-6-azaspiro[3.3]heptan-6-yl)-1,2-dihydroquinazolin-3(4H)-yl)cyclohexanecarboxamide]	< 100
COc1ccc(NC(=O)[C@H]2CC[C@@H](N3Cc4c(C)ccnc4NC3=O)CC2)cc1 [Example 15, (1s,4s)-N-(4-methoxyphenyl)-4-(5-methyl-2-oxo-1,2-dihydropyrido[2,3-d]pyrimidin-3(4H)-yl)cyclohexanecarboxamide]	1000 to 10000
COc1ccc(NC(=O)[C@H]2CC[C@@H](N3Cc4c(C)ccnc4NC3=O)CC2)cc1Cl [Example 14, (1s,4s)-N-(3-Chloro-4-methoxyphenyl)-4-(5-methyl-2-oxo-1,2-dihydropyrido[2,3-d]pyrimidin-3(4H)-yl)cyclohexanecarboxamide]	100 to 1000
COc1cc(NC(=O)[C@H]2CC[C@@H](N3Cc4c(C)cc(-c5nnco5)cc4NC3=O)CC2)ccc1C [Example 92, (1s,4s)-N-(3-methoxy-4-methylphenyl)-4-(5-methyl-7-(1,3,4-oxadiazol-2-yl)-2-oxo-1,2-dihydroquinazolin-3(4H)-yl)cyclohexanecarboxamide]	< 100
COc1ccc(NC(=O)[C@]2(C)CC[C@H](N3Cc4c(C)cccc4NC3=O)CC2)cc1Cl (single isomer, unassigned) [Example 103, (1s,4s)-N-(3-chloro-4-methoxyphenyl)-1-methyl-4-(5-methyl-2-oxo-1,2-dihydroquinazolin-3(4H)-yl)cyclohexanecarboxamide]	< 100
COc1ccc(NC(=O)[C@H]2CC[C@@H](N3Cc4c(C)cc(NCCN(C)C)cc4C3=O)CC2)cc1C [Example 256, (1s,4s)-4-(6-(2-(Dimethylamino)ethylamino)-4-methyl-1-oxoisoindolin-2-yl)-N-(4-methoxy-3-methylphenyl)cyclohexanecarboxamide]	< 100
COc1cc(NC(=O)[C@H]2CC[C@@H](N3Cc4c(C)ccc(OC5CNC5)c4NC3=O)CC2)ccc1C [Example 45]	< 100
COc1ccc(NC(=O)[C@H]2CC[C@@H](N3Cc4c(C)ccc(OC)c4NC3=O)CC2)cc1C [Example 4, (1s,4s)-N-(3-Methyl-4-methoxyphenyl)-4-(8-methoxy-5-methyl-2-oxo-1,2-dihydroquinazolin-3(4H)-yl)cyclohexanecarboxamide]	100 to 1000
COc1ccc(NC(=O)[C@H]2CC[C@@H](N3Cc4c(C)cccc4C3=O)CC2)cc1C [Example 227, (1s,4s)-N-(4-Methoxy-3-methylphenyl)-4-(4-methyl-1-oxoisoindolin-2-yl)cyclohexanecarboxamide]	100 to 1000
